Experimental data from patent US9732075B2, “Benzimidazole-proline derivatives” (IDORSIA PHARMACEUTICALS LTD, priority 2012, dated 2017).

Tests used:
human orexin-1 receptor = human orexin-1 receptor (Homo sapiens (Human), UniProt O43613); assay: In vitro assay: intracellular calcium measurements (FLIPR), antagonistic activity; type: cell-based; conditions: CHO cells expressing human orexin-1 receptor, orexin-A agonist, geometric mean, read-out: IC50 Ox1
Summary of the method: (§1)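 Read-out: FLIPR fluo-4 calcium peak height in CHO cells bearing human orexin-1 or orexin-2 receptor, relative to orexin-A (approx. EC70) with vehicle. Antagonist preincubation 120 min; agonist orexin-A at 3 nM final. IC50 possibly normalized to an on-plate reference compound.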

human orexin-2 receptor = human orexin-2 receptor (Homo sapiens (Human), UniProt O43614); assay: as above; type: cell-based; conditions: CHO cells expressing human orexin-2 receptor, orexin-A agonist, geometric mean, read-out: IC50 Ox2
Sequence of human orexin-2 receptor (O43614 whole entry): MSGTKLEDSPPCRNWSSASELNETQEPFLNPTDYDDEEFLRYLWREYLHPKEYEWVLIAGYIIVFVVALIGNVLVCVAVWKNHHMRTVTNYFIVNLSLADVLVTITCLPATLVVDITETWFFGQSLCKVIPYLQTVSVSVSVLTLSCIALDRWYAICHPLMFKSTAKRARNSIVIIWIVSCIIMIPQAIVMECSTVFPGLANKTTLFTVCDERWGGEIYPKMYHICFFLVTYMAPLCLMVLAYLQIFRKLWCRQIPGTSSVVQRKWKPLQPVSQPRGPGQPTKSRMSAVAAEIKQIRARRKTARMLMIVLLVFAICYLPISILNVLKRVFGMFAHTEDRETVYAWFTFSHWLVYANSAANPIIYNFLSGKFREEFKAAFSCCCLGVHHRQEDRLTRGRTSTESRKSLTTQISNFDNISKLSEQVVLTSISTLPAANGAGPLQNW
Summary of the method: as §1

Sequence of human orexin-1 receptor (O43613 whole entry): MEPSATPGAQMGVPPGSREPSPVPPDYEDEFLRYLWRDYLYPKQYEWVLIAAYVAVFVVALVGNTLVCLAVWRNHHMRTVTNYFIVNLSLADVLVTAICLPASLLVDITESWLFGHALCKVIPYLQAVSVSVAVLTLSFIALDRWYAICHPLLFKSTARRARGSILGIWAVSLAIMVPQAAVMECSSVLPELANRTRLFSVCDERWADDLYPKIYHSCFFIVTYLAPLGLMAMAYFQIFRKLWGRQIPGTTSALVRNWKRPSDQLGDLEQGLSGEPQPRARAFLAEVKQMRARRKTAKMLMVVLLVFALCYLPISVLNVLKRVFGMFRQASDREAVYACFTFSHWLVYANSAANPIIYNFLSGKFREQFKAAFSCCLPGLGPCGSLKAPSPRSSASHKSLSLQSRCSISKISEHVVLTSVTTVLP

CSc1cccc2nc([C@@H]3CCCN3C(=O)c3cnc(C)nc3-c3ccccc3)[nH]c12 [Ex. 1.87]
IC50 (human orexin-1 receptor): 30 nM
IC50 (human orexin-2 receptor): 77 nM

CCn1c([C@]2(C)CCCN2C(=O)c2cc(C)ccc2-c2ccccc2F)nc2cc(C)c(C)cc21 [Ex. 7.45]
IC50 (human orexin-1 receptor): 31 nM
IC50 (human orexin-2 receptor): 60 nM

COc1ccc(-c2ccc(F)cc2)c(C(=O)N2CCC[C@@]2(C)c2nc3ccc(Cl)c(C)c3[nH]2)c1F [Ex. 5.299]
IC50 (human orexin-1 receptor): 17 nM
IC50 (human orexin-2 receptor): 21 nM

COc1ccc2nc([C@@H]3CCCN3C(=O)c3nc(C)sc3-c3ccc(C)cc3)[nH]c2c1 [Ex. 1.22]
IC50 (human orexin-1 receptor): 415 nM
IC50 (human orexin-2 receptor): 52 nM

COc1cc2nc([C@]3(C)CCCN3C(=O)c3ccccc3-c3ccc(C)cc3)[nH]c2cc1OC [Ex. 5.88]
IC50 (human orexin-1 receptor): 192 nM
IC50 (human orexin-2 receptor): 166 nM

COc1ccc(-n2nccn2)c(C(=O)N2CCC[C@@]2(C)c2nc3c(C)c(Cl)ccc3[nH]2)c1F [Ex. 5.37]
IC50 (human orexin-1 receptor): 10 nM
IC50 (human orexin-2 receptor): 16 nM

C=C1C[C@@H](c2nc3cc(OC)ccc3[nH]2)N(C(=O)c2nc(C)sc2-c2cccc(F)c2)C1 [Ex. 6.33]
IC50 (human orexin-1 receptor): 213 nM
IC50 (human orexin-2 receptor): 23 nM

COc1cc2nc([C@@H]3[C@@H](C)CCN3C(=O)c3ncsc3-c3cccc(Cl)c3)[nH]c2cc1OC [Ex. 4.55]
IC50 (human orexin-1 receptor): 167 nM
IC50 (human orexin-2 receptor): 7970 nM

Cc1c(Cl)ccc2nc([C@]3(C)CCCN3C(=O)c3c(F)cccc3-c3ccccc3)[nH]c12 [Ex. 5.225]
IC50 (human orexin-1 receptor): 16 nM
IC50 (human orexin-2 receptor): 44 nM

COc1cc2nc([C@]3(C)CCCN3C(=O)c3c(-n4nccn4)ccc(OC)c3F)[nH]c2cc1OC [Ex. 5.69]
IC50 (human orexin-1 receptor): 414 nM
IC50 (human orexin-2 receptor): 1200 nM

Cc1ccc(-n2nccn2)c(C(=O)N2CCC[C@@]2(C)c2nc3cc(Cl)c(C)cc3[nH]2)c1 [Ex. 5.15]
IC50 (human orexin-1 receptor): 5 nM
IC50 (human orexin-2 receptor): 22 nM

Cc1ccc(C(=O)N2CCC[C@@]2(C)c2nc3cc(OC(F)(F)F)ccc3[nH]2)c(-n2nccn2)c1 [Ex. 5.238]
IC50 (human orexin-1 receptor): 23 nM
IC50 (human orexin-2 receptor): 91 nM

Cc1ccc(-n2nccn2)c(C(=O)N2CCC[C@@]2(C)c2nc3cc(C(F)(F)F)c(Cl)cc3[nH]2)n1 [Ex. 5.145]
IC50 (human orexin-1 receptor): 6 nM
IC50 (human orexin-2 receptor): 30 nM

Cc1nc(C(=O)N2CCCC2c2nc3c(C)cccc3[nH]2)c(-c2ccccc2)s1 (stereo not shown) [Ex. 1.123]
IC50 (human orexin-1 receptor): 147 nM
IC50 (human orexin-2 receptor): 70 nM

C=C1C[C@@H](c2nc3ccc(OC)cc3[nH]2)N(C(=O)c2cc(C)c(C)cc2-n2nccn2)C1 [Ex. 6.139]
IC50 (human orexin-1 receptor): 137 nM
IC50 (human orexin-2 receptor): 0.6 nM

Cc1c(Cl)ccc2[nH]c([C@@H]3[C@@H](C)CCN3C(=O)c3ccccc3-n3nccn3)nc12 [Ex. 4.59]
IC50 (human orexin-1 receptor): 6 nM
IC50 (human orexin-2 receptor): 67 nM

COc1cc2nc([C@]3(C)CCCN3C(=O)c3ccc(C)cc3-n3nccn3)[nH]c2cc1OC [Ex. 5.70]
IC50 (human orexin-1 receptor): 31 nM
IC50 (human orexin-2 receptor): 83 nM

COc1ccc(-c2ccc(OC(F)(F)F)cc2)c(C(=O)N2CCC[C@@]2(C)c2nc3c(C)c(Cl)ccc3[nH]2)c1F [Ex. 5.306]
IC50 (human orexin-1 receptor): 33 nM
IC50 (human orexin-2 receptor): 69 nM

Cc1nc(C(=O)N2CC[C@H](C)[C@H]2c2nc3cc(Cl)c(C)cc3[nH]2)c(-c2ccc(Cl)cc2)s1 [Ex. 4.78]
IC50 (human orexin-1 receptor): 3 nM
IC50 (human orexin-2 receptor): 1630 nM

C=C1C[C@@H](c2nc3cccc(C)c3[nH]2)N(C(=O)c2nc(C)ccc2-n2nccn2)C1 [Ex. 6.115]
IC50 (human orexin-1 receptor): 333 nM
IC50 (human orexin-2 receptor): 9 nM

COc1ccc2[nH]c([C@@H]3CCCN3C(=O)c3cc(C)ccc3-n3cccn3)nc2c1 [Ex. 1.171]
IC50 (human orexin-1 receptor): 2210 nM
IC50 (human orexin-2 receptor): 36 nM

Cc1nc(C(=O)N2CC[C@H](C)[C@H]2c2nc3cc(F)ccc3[nH]2)c(-c2cccc(Cl)c2)s1 [Ex. 4.20]
IC50 (human orexin-1 receptor): 28 nM
IC50 (human orexin-2 receptor): 2450 nM

Cc1c(Cl)ccc2[nH]c([C@]3(C)CCCN3C(=O)c3cc(OC(F)(F)F)ccc3-n3nccn3)nc12 [Ex. 5.35]
IC50 (human orexin-1 receptor): 102 nM
IC50 (human orexin-2 receptor): 99 nM

C=C1C[C@@H](c2nc3cc(Cl)c(C(F)(F)F)cc3[nH]2)N(C(=O)c2cc(C)c(C)cc2-n2nccn2)C1 [Ex. 6.181]
IC50 (human orexin-1 receptor): 2 nM
IC50 (human orexin-2 receptor): 2 nM

Cc1ccc(-n2nccn2)c(C(=O)N2CCC[C@@]2(C)c2nc3cc(Br)cc(C)c3n2C)c1 [Example 7.4, (S)-(2-(5-bromo-1,7-dimethyl-1H-benzo[d]imidazol-2-yl)-2-methylpyrrolidin-1-yl)(5-methyl-2-(2H-1,2,3-triazol-2-yl)phenyl)methanone]
IC50 (human orexin-1 receptor): 7 nM
IC50 (human orexin-2 receptor): 6 nM

Cc1c(Cl)ccc2[nH]c([C@]3(C)CCCN3C(=O)c3nc(-c4cccc(F)c4F)sc3-c3ccc(F)cc3)nc12 [Ex. 5.251]
IC50 (human orexin-1 receptor): 13 nM
IC50 (human orexin-2 receptor): 774 nM

Cc1ccc(-c2sccc2C(=O)N2CC[C@H](C)[C@H]2c2nc3cc(C(F)(F)F)ccc3[nH]2)cc1C [Ex. 4.144]
IC50 (human orexin-1 receptor): 9 nM
IC50 (human orexin-2 receptor): 463 nM

Cc1nc(C(=O)N2CCCC2c2nc3c(C)cccc3[nH]2)c(-c2cccc(Cl)c2)s1 (stereo not shown) [Ex. 1.96]
IC50 (human orexin-1 receptor): 54 nM
IC50 (human orexin-2 receptor): 43 nM

C=C1CN(C(=O)c2nc(C)sc2-c2cccc(C)c2)C(C)(c2nc3cc(OC)ccc3[nH]2)C1 (stereo not shown) [Ex. 6.143]
IC50 (human orexin-1 receptor): 13 nM
IC50 (human orexin-2 receptor): 32 nM
